The experiment has as its target human RORgammaT-Ligand Binding Domain (LBD) (Homo sapiens (Human), UniProt P51449). Briefly: RORγ-Ligand Binding Domain TR-FRET Assay (co-activator peptide SRC1_2 recruitment). The experiment is classed as biochemical. The following applies: HIS-tagged RORγ-LBD 3 nM, biotinylated SRC1 LXXLL peptide 100 nM, incubated overnight at 4° C., 665 nm/615 nm ratio. In outline:
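E. coli-expressed, Ni2+-purified HIS-tagged human RORγ-LBD at 3 nM final in 50 mM Tris pH 7.0, 50 mM KCl, 1 mM EDTA, 0.1 mM DTT, 100 μg/mL delipidated BSA. TR-FRET read-out of SRC1_2 co-activator peptide recruitment; compounds dispensed acoustically.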
In general terms: Time-resolved FRET reads energy transfer from a long-lived donor to a nearby acceptor.

From US9783511B2, “Carbamate benzoxazine propionic acids and acid derivatives for modulation of RORgamma activity and the treatment of disease” (Merck Sharp & Dohme Corp., priority 2013, dated 2017) come the findings set out here.

By IC50 is commonly meant the point on the concentration scale where inhibition reaches its midpoint.

Chain of human RORgammaT-Ligand Binding Domain (LBD) (P51449 269-508): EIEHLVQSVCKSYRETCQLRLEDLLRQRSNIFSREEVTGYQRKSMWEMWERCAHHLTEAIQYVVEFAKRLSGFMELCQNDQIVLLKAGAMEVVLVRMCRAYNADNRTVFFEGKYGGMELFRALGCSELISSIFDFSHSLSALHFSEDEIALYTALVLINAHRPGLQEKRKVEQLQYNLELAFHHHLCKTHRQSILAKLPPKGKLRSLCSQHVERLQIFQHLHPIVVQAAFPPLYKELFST

Take `COc1cc(S(=O)(=O)N2c3cc(NC(=O)OC(C)(C)C(F)(F)F)ccc3O[C@@H](CC(C)(C)C(=O)O)[C@H]2C)ccc1F` [Example 27B, 3-[(2S,3R)-4-[(4-fluoro-3-methoxyphenyl)sulfonyl]-3-methyl-6-{[(2,2,2-trifluoro-1,1-dimethylethoxy)carbonyl]ami-no}-3,4-dihydro-2H-1,4-benzoxazin-2-yl]-2,2-dimethylpropanoic acid]: the IC50 was determined as 17.5 nM. For the compound `CC(C)(OC(=O)Nc1cc(F)c2c(c1)N(S(=O)(=O)c1ccc(F)c(C(F)(F)F)c1)C[C@H](CCC(=O)O)O2)C(F)(F)F` [Example 28, (S)-3-(8-fluoro-4-((4-fluoro-3-(trifluoromethyl)phenyl)sulfonyl)-6-((((1,1,1-trifluoro-2-methylpropan-2-yl)oxy)carbonyl)amino)-3,4-dihydro-2H-benzo[b][1,4]oxazin-2-yl)propanoic acid], the IC50 was determined as 10.2 nM. As to `Cc1cc(S(=O)(=O)N2C[C@H](CCC(=O)O)Oc3c(F)cc(NC(=O)OC(C)(C)C(F)(F)F)cc32)ccc1F` [Example 29A, 3-[(2S)-8-fluoro-4-[(4-fluoro-3-methylphenyl)sulfonyl]-6-{[(2,2,2-trifluoro-1,1-dimethylethoxy)carbonyl]ami-no}-3,4-dihydro-2H-1,4-benzoxazin-2-yl]propanoic acid], the IC50 turned out to be 5.71 nM. For the compound `COc1cc(S(=O)(=O)N2C[C@H](CCC(=O)O)Oc3c(F)cc(NC(=O)OC(C)(C)C(F)(F)F)cc32)ccc1F` [Example 29B, 3-[(2S)-8-fluoro-4-[(4-fluoro-3-methoxyphenyl)sulfonyl]-6-{[(2,2,2-trifluoro-1,1-dimethylethoxy)carbonyl]ami-no}-3,4-dihydro-2H-1,4-benzoxazin-2-yl]propanoic acid], the IC50 is 3.9 nM. The same measure for `CCn1cc(S(=O)(=O)N2C[C@H](CCC(=O)O)Oc3c(F)cc(NC(=O)OC(C)(C)C(F)(F)F)cc32)c(Cl)n1` [Example 29C, 3-[(2S)-4-[(3-chloro-1-ethyl-1H-pyrazol-4-yl)sulfonyl]-8-fluoro-6-{[(2,2,2-trifluoro-1,1-dimethylethoxy)carbonyl]ami-no}-3,4-dihydro-2H-1,4-benzoxazin-2-yl]propanoic acid]: 9.68 nM; for `CCOc1nn(CC)cc1S(=O)(=O)N1C[C@H](CCC(=O)O)Oc2c(F)cc(NC(=O)OC(C)(C)C(F)(F)F)cc21` [Example 29D, 3-[(2S)-4-[(3-ethoxy-1-ethyl-1H-pyrazol-4-yl)sulfonyl]-8-fluoro-6-{[(2,2,2-trifluoro-1,1-dimethylethoxy)carbonyl]ami-no}-3,4-dihydro-2H-1,4-benzoxazin-2-yl]propanoic acid]: 7.92 nM. Consider `CC(C)(OC(=O)Nc1cc(F)c2c(c1)N(S(=O)(=O)c1cccc(C(F)(F)F)c1)C[C@H](CCC(=O)O)O2)C(F)(F)F` [Example 29E, 3-[(2S)-8-fluoro-6-{[(2,2,2-trifluoro-1,1-dimethylethoxy)carbonyl]ami-no}-4-{[3-(trifluoromethyl)phenyl]sulfo-nyl}-3,4-dihydro-2H-1,4-benzoxazin-2-yl]propanoic acid], for which the IC50 was determined as 10.2 nM. With `CC(C)(OC(=O)Nc1cc(F)c2c(c1)N(S(=O)(=O)c1ccc(F)c(Cl)c1)C[C@H](CCC(=O)O)O2)C(F)(F)F` [Example 29F, 3-[(2S)-4-[(3-chloro-4-fluorophenyl)sulfonyl]-8-fluoro-6-{[(2,2,2-trifluoro-1,1-dimethylethoxy)carbonyl]ami-no}-3,4-dihydro-2H-1,4-benzoxazin-2-yl]propanoic acid], the 50% inhibitory concentration (IC50) was 5.7 nM. Turning to `CC(C)(OC(=O)Nc1cc(F)c2c(c1)N(S(=O)(=O)c1ccnc(C(F)(F)F)c1)C[C@H](CCC(=O)O)O2)C(F)(F)F` [Example 29H, 3-[(2S)-8-fluoro-6-{[(2,2,2-trifluoro-1,1-dimethylethoxy)carbonyl]ami-no}-4-{[2-(trifluoromethyl)pyridin-4-yl]sulfonyl}-3,4-dihydro-2H-1,4-benzoxazin-2-yl]propanoic acid], the 50% inhibitory concentration (IC50) came to 10.1 nM. As to `CC(C)(OC(=O)Nc1cc(F)c2c(c1)N(S(=O)(=O)c1cncc(C(F)(F)F)c1)C[C@H](CCC(=O)O)O2)C(F)(F)F` [Example 29i, 3-[(2S)-8-fluoro-6-{[(2,2,2-trifluoro-1,1-dimethylethoxy)carbonyl]ami-no}-4-{[5-(trifluoromethyl)pyridin-3-yl]sulfonyl}-3,4-dihydro-2H-1,4-benzoxazin-2-yl]propanoic acid], the IC50 worked out at 9.01 nM.
